In patent US20240269194A1, “COMPOSITIONS AND METHODS FOR ISLET CELL TRANSPLANTS” (City of Hope, priority 2021, published 2024):
“Also recorded” adds a separate entry of the source.

Assays:
gastrin receptor CCKBR = molecular target: T1, gastrin receptor CCKBR (Homo sapiens, UniProt P32239); assay: Gastrin receptor blockade with YM022, qPCR in human islets; assay type: cell-based; details: YM022 together with 100 nM gastrin, donors with high HbA1c
T1 construct: Human islets express the gastrin receptor CCKBR; from tissue; host or cells: isolated human pancreatic islets from donors
Procedure: To establish that gastrin effect is mediated through activation of the gastrin receptor CCKBR, islets were treated with either 100 nM gastrin or 100 nM gastrin together with the CCKBR antagonist YM022.

human islets [1] = assay: qPCR gene expression in isolated human islets treated for 48 hours; assay type: cell-based
Procedure: Isolated human islets from 11 donors with varied glycemic control (HbA1c 5.2-10.4) were treated with GAST-17 for 48 hours and gene expression was analyzed by qPCR. […] Gene expression levels were not increased in islets from donors with an HbA1c <6.0 (FIG. 9). The increase in insulin mRNA correlated with the HbA1c levels, with higher insulin transcripts seen in islets from donors with more elevated HbA1c (FIG. 10).

non-diabetic Wistar rats = assay: Beta and alpha cell content of pancreas by laser scanning cytometry after 30-day treatment; assay type: in vivo, rat
Procedure: The islet expansion effects of GAST-17 were evaluated in non-diabetic Wistar rats (10 males and 10 females in each group). At the end of 30-day treatment, animals were terminated, pancreata excised and immuno-stained for beta and alpha cell content using laser scanning cytometry (LSC) (FIGS. 2A and 2B).
Gastrin analogue, GAST-17, stimulates beta cell expansion. T2D individuals display a loss of beta cell numbers and function. Increasing beta cell mass is considered a possible therapy for T2D (37). The islet expansion effects of GAST-17 were evaluated in non-diabetic Wistar rats (10 males and 10 females in each group). At the end of 30-day treatment, pancreata were excised and stained for beta and alpha cell content counting using laser scanning cytometry (FIGS. 24A and 24B).

human islets [2] = assay: Human islets challenged with inflammatory cytokines, glucose-mediated insulin secretion; assay type: cell-based; details: inflammatory cytokine challenge
Procedure: Gastrin is expressed in insulin^+ and somatostatin^+ cells in islets from people with T2D. As noted, gastrin increased insulin/somatostatin in delta cells, and this correlated positively with islet donor A1c levels (64). Extending these published and new findings, human islets were challenged with inflammatory cytokines (to mimic the harsh environment of transplantation) in the presence and absence of GAST-17 and glucose-mediated insulin secretion was determined.

[3] = test system: transplanted human islets; assay: Human islets transplanted to livers of NOD mice: 18F-TCE4 microPET, insulin staining, blood glucose; assay type: in vivo, mouse; details: 150 μg/kg/dose three times daily, 30 days
Procedure: Isolated human islets were transplanted (Tx) to the livers of NOD mice followed by GAST-17 treatment for 30 days (150 μg/kg/dose, injected three times daily) (Tx+Treated, n=7) and compared to mice receiving islet transplant alone (Tx only, n=5) and untreated controls (Normal, n=5). After completion of treatment, whole mice and organs of interest were imaged (in vivo and ex vivo) with ^18F-TC-Exendin-4 (TCE4) using microPET and a high specific activity labeling technique developed at COH for targeting islets (49). […] Beta cell mass was calculated as percent beta cell area of the total cell surface area found on immunolabeled tissue sections. Data from 4 livers from mice treated with islet transplant alone (“−Gastrin”) and five livers from mice treated with islet transplant and gastrin treatment (“+Gastrin”) (˜32 slides per liver) were assessed.
Gastrin analogue, GATS-17, promotes expansion/neogenesis of transplanted human islets. Isolated human islets were transplanted (Tx) into livers of NOD/SCID mice followed by GAST-17 treatment for 30 days (150 μg/kg/dose, injected three times daily) (Tx+Treated, n=7) and compared to mice receiving islet transplant alone (Tx only, n=5) and untreated controls (Normal, n=5). After completion of treatment, whole mice and organs of interest were imaged (in vivo and ex vivo) with ^18F-TC-Exendin-4 (TCE4) using microPET (a high specific activity labeling technique developed at COH for targeting islets).

human islets [4] = assay: Long-term human islet culture with and without GAST-17, inflammatory gene expression; assay type: cell-based; details: non-diabetic donors, long-term culture (1516 days), 21% oxygen
Procedure: Long-term islet culture is associated with expression of inflammatory cytokines and islet stress/damage. Human islets from non-diabetic donors were cultured with and without GAST-17 long-term (1516 days) at normal oxygen concentrations (21%).

T1D patients = assay type: in vivo, human
Procedure: Gastrin is a natural hormone that is secreted by the stomach and is involved in fetal pancreas development. […] Building on these observations, it was tested whether gastrin treatment will improve islet engraftment, induced beta cell expansion/function, and enhanced islet transplant outcomes in T1D individuals. A gastrin analogue (GAST-17) was produced and obtained FDA-IND approval to evaluate its safety and efficacy in a Phase I/II, prospective, single-arm trial to improve outcomes in T1D recipients undergoing a single islet transplant and two 30-day courses for GAST-17. The trial has been initiated with the first two treated individuals achieving insulin independence with roughly half of the islet dose normally required.
The success of clinical islet transplantation depends on transplantation of adequate islet mass and minimizing graft loss secondary to ischemia and inflammation. After infusion into the portal vein, islets are exposed to damaging inflammatory factors (the so-called instant blood-mediated inflammatory reaction, IBMIR). This involves activation of the complement and coagulation cascades, ultimately resulting in clot formation and infiltration of leukocytes into the islets. The IBMIR may be triggered by islet surface molecules, such as tissue factor and collagen residues that are normally not in direct contact with the blood. Also, ischemic stress during islet isolation results in production of inflammatory mediators by islets. Strategies to mitigate the IBMIR include the treatment of recipients with anticoagulants or pre-conditioning islets with anti-inflammatory agents. As inflammatory reactions are thought to negatively impact islet engraftment in the early post-transplant period, etanercept, a TNFα mitigator, and anakinra, an IL-1 receptor antagonist, are used to limit acute transplant-related inflammation. […]
Treatment course 1. […] Subjects are monitored for adverse effects and assessed for preliminary efficacy at 1, 2.5, and 6 months after starting the first course of GAST-17. […]

[5] = donors HbA1c >6.0 (n=5), P<0.0001

T1 sequence (P32239 whole entry): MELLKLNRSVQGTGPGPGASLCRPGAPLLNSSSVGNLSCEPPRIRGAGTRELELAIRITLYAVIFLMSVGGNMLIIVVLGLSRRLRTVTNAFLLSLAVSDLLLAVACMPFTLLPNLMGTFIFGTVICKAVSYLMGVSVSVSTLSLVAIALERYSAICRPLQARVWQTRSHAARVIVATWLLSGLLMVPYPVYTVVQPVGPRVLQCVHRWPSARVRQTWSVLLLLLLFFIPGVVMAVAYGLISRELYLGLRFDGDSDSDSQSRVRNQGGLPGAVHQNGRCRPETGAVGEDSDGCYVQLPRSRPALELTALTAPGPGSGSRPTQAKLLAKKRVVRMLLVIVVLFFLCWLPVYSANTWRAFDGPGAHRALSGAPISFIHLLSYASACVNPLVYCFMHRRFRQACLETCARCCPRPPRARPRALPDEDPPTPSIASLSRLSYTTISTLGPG

Molecule	insulin, somatostatin and glucagon mRNA levels (gastrin receptor CCKBR)	gene expression levels (insulin, somatostatin, glucagon) (human islets [1]; donors HbA1c <6.0)	insulin transcripts (human islets [1]; [5])	somatostatin transcripts (human islets [1]; [5])	glucagon transcripts (human islets [1]; donors HbA1c >6.0 (n=5), P<0.02)	mRNA levels of transcription factors MAFA, MNX1, NKX2.2, NKX6.1, PDX1 and HHEX (human islets [1]; only in HbA1c >6.0 group)	percentage of alpha cells (non-diabetic Wistar rats; 30-day treatment vs controls)	average percentage of beta cells of total cells per slide (non-diabetic Wistar rats; 30-day treatment, all treatment groups vs controls)	glucose-mediated insulin secretion (human islets [2])	human islet damage from inflammatory cytokines (human islets [2])	insulin+/somatostatin+ cell numbers (human islets [2])	native beta cell expansion, ex vivo imaging of the pancreas ([3]; p=0.000063)	18F-TCE4 uptake by islet grafts in liver, in vivo (whole body images) ([3]; vs control group, p=0.000015)	18F-TCE4 uptake by islet grafts, ex vivo (excised liver) ([3]; vs control group, p=0.000036)	expression of IL-10 (human islets [4])	islet expression of inflammatory genes (human islets [4])	insulin independence (T1D patients; first two T1D patients, single islet transplant <6,100 IEQ/kg)	engraftment and blood glucose normalization (T1D patients; two T1D individuals, 15 μg/kg twice daily, month 1 and 7, <6,100 IEQ/kg)	time to insulin freedom (T1D patients; two patients, single IT (<6,100 IEQ/kg BW))
Cc1cccc(NC(=O)N[C@@H]2N=C(c3ccccc3)c3ccccc3N(CC(=O)c3ccccc3C)C2=O)c1 [YM022]	remained un-changed	–	–	–	–	–	–	–	–	–	–	–	–	–	–	–	–	–	–
[Leu^15] Gastrin-17 [GAST-17]	–	not increased	significant increase	significant increase	significant increase	significant increases	did not change	significantly increased	enhanced insulin secretion	reduced human islet damage from inflammatory cytokines	increased insulin+/somatostatin+ cell numbers	significant expansion	significantly increased; also recorded: significantly higher	significantly increased; also recorded: significantly higher	increased expression of IL-10	reduced islet expression of inflammatory genes	achieving insulin independence with half of the islet mass normally required	rapid engraftment and total normalization of blood glucose	achieved insulin freedom within two weeks
